The subject of the test is CEM cells HIV-1 protection, formazan growth assay. The experiment in a line: NCI AIDS Antiviral Assay. To be noted: for IC50: measured here: growth of uninfected CEM cells. The method, boiled down: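 Protection of CEM cells against HIV-1 measured as cell growth via soluble formazan read-out, with five concentrations tested on both infected and uninfected cells; failure to protect may reflect toxicity.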

Calls of active or inactive are those of the source.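 Rule for the calls: active = compounds giving half or more protection of infected cells from virus-caused growth loss, again on retest; inactive = the rest.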

One may read the EC50 as the midpoint of the concentration-response curve. In general, IC50 refers to the concentration that gives 50% inhibition.

Take `N#CCc1nc2c(s1)C(=O)c1ccccc1C2=O`: the EC50 is greater than 7.94 µM and the IC50 was greater than 7.94 µM.

Consider `O=S(=O)([O-])c1ccc2c(N=Nc3ccc(/C=C\c4ccc(N=Nc5c([O-])ccc6cc(S(=O)(=O)[O-])ccc56)cc4S(=O)(=O)[O-])c(S(=O)(=O)[O-])c3)c([O-])ccc2c1.[Cu+2].[Cu+2].[Na+]`, for which the EC50 was greater than 19.1 µM and the IC50 stood at 15.8 µM.

Regarding `COC(=O)c1ccccc1/C=C1\Cc2cc(C)cc(C)c2C1=O`, the result was inactive.

Consider `Cc1ccc(S(=O)(=O)Nc2ccccc2C(C)(C)C)cc1`, for which the result was inactive. The same measure, in the same setting: under `COC1=C(C)C(=O)C(=O)c2cccnc21` stands “inactive”.

In the case of `O=C(O)c1ccccc1C(c1cc(Br)c(O)c(Br)c1)c1cc(Br)c(O)c(Br)c1`, the result was inactive. For the compound `[N-]=[N+]=CC(=O)OC1CCOCC1`, the EC50 was greater than 200 µM and the IC50 is greater than 200 µM. Regarding `CCCCC(C)CCCC1=C(O)C(CC(=O)O)OC1=O` (stereo not given), the EC50 is greater than 87.1 µM and the IC50 was greater than 87.1 µM. As for `Cc1c2c(oc(=O)c1NC(=O)c1ccccc1)CCCCCC2`, the EC50 is greater than 200 µM and the IC50 is greater than 200 µM. Regarding `CC(=O)CC(=O)N1CCOC1=O`, the EC50 is greater than 200 µM and the IC50 came out at 36.3 µM. In the case of `O=C1C=C(c2ccccc2)C(c2ccccc2)C1O` (stereo not given), the EC50 was greater than 200 µM and the IC50 came out at 135 µM. Regarding `O=P1(Nc2ccc(/C=C3\C=Cc4ccccc43)cc2)NCCCO1` (stereo not given), the EC50 is greater than 39.8 µM and the IC50 came to 22.9 µM. With `O=S(O)CCCCCSSSCCCCCS(=O)O`, the outcome was inactive. In the case of `NC(=O)c1[nH]nc(C2OC(CO)C(O)C2O)c1O` (stereo not given), the EC50 was greater than 955 µM and the half-maximal inhibitory concentration (IC50) came to 0.309 µM. `O=C1C2C3CCC(C3)C2S(=O)(=O)C2C3CCC(C3)C12` (stereo not given): the EC50 is greater than 200 µM and the IC50 was greater than 200 µM. For `Cc1ccccc1NC(=O)c1c(C)oc2c1C(=O)c1ccccc1C2=O`, the EC50 was greater than 39.8 µM and the IC50 is greater than 39.8 µM. Regarding `c1ccc2c(c1)N=c1ccccc1=P21c2ccccc2Nc2ccccc21`, the EC50 was greater than 2 µM and the IC50 amounted to 0.214 µM.

Turning to `Cn1c(NNc2ccccc2)cc(=O)[nH]c1=O`, the EC50 was greater than 200 µM and the IC50 came to 28.8 µM. Regarding `CCOC(=O)c1c(C)cc(=O)n2c1[nH]c1ccccc12`, the EC50 was greater than 200 µM and the IC50 amounted to 151 µM. In the case of `N#Cc1cccc(/C=N/N=C(\N)NO)c1`, the EC50 was greater than 479 µM and the IC50 was determined as 37.2 µM.

Consider `O=C(O)/C=C/S(=O)(=O)O`, for which the EC50 was greater than 200 µM and the IC50 was greater than 200 µM. For `CCOC(=O)c1c(SC(=O)c2ccc(OC)cc2)n(-c2ccccc2)c(=S)n(-c2ccccc2)c1=O`, the EC50 is greater than 200 µM and the IC50 was 28.2 µM.

On to `Cc1ccc(-c2n[nH]c(=O)n2N2C(=O)c3ccccc3C2=O)cc1`, for which the EC50 is greater than 200 µM and the IC50 is greater than 200 µM. Regarding `CCP(=O)(OC)C1=CCN(C(=O)OCC[Si](C)(C)C)CC1` (stereo not given), the EC50 is greater than 200 µM and the IC50 was greater than 200 µM. As to `CCC[CH2][Sn]1([CH2]CCC)[O]C(=O)c2cccnc2[S]1`, the EC50 was greater than 33.9 µM and the IC50 stood at 0.631 µM. As to `N#CC12CC=C(c3ccccc3)N=C1NC(c1ccccc1)=CC2` (stereo not given), the EC50 is greater than 200 µM and the IC50 was found to be 23.4 µM.

In the case of `CCN(CC)C(=O)SCCSC(=O)N(CC)CC`, the EC50 was greater than 100 µM and the IC50 was greater than 100 µM. On to `O=C(O)C12C3C4C1C1C2C3C41I` (stereo not given), for which the EC50 was greater than 479 µM and the IC50 is greater than 479 µM. Take `Cc1ccc2c(c1)sc1nncn12`: the EC50 is greater than 100 µM and the IC50 was greater than 100 µM. Consider `O=Nc1ccc(Br)cc1`, for which the outcome was inactive. For `O=C(NC(N1CCN(c2cc3c(cc2F)c(=O)c(C(=O)O)cn3C2CC2)CC1)(C(F)(F)F)C(F)(F)F)c1ccccc1`, the EC50 was greater than 200 µM and the IC50 amounted to 105 µM. On to `COc1cccc(/C=C2\SC(=S)N(/C=C(/C#N)C(N)=O)C2=O)c1O`, for which the EC50 is 100 µM and the IC50 amounted to 112 µM. The like results for `CC1(C)OCC=CCO1` were, in that order, greater than 200 µM and greater than 200 µM. With `Cc1ccc(S(=O)(=O)CNC(=O)C(O)(O)C(F)(F)F)cc1`, the EC50 was greater than 200 µM and the IC50 was greater than 200 µM. For `N#CCN1CCN(CC#N)CCN(CC#N)CCN(CC#N)CC1`, the EC50 was greater than 200 µM and the IC50 came to 28.2 µM. Consider `COC(=O)c1cc(C(=CCCOS(C)(=O)=O)c2cc(Cl)c(OC)c(C(=O)OC)c2)cc(Cl)c1OC`, for which the EC50 is greater than 200 µM and the IC50 was determined as 14.5 µM. For `CC1CCC2(CC1)N=C1CCC(C)CC1C1(CCC(C)CC1)N2` (stereo not given), the EC50 was greater than 200 µM and the IC50 stood at 97.7 µM. As for `O=C1c2cccc(NCCCNCCO)c2C(=O)c2cccc(NCCCNCCO)c21`, the result was inactive. Turning to `O=C1c2ccccc2C(=O)N1CSS(=O)(=O)O`, the EC50 is greater than 200 µM and the IC50 is greater than 200 µM. As for `Cc1cc(C)c(/C=C(\C(=C/c2c(C)cc(C)cc2C)[N+](=O)[O-])[N+](=O)[O-])c(C)c1`, the EC50 is greater than 100 µM and the IC50 is greater than 100 µM. For `CCc1cc(C(=O)OC)cn1C(=N)c1ccc(Cl)cc1`, the EC50 is greater than 851 µM and the IC50 is greater than 851 µM. Take `CN(C)c1ccc(/C=C(\NC(=O)c2ccccc2)C(=O)Nc2cccc(C(=O)NCCCO)c2)cc1`: the EC50 is greater than 200 µM and the IC50 was greater than 200 µM.

Regarding `CC(C)c1cc(=O)[nH]c2cc(N)ccc12`, the EC50 was greater than 200 µM and the IC50 was greater than 200 µM.

On to `Cc1ccc2c(c1)C(=O)/C(=N/Nc1ccc(Cl)cc1)CCO2`, for which the EC50 was greater than 200 µM and the IC50 was determined as 110 µM. Consider `CN(Cc1cnc2nc(N)nc(N)c2n1)c1ccc(C(=O)NC(CCC(=O)NCCC(P(=O)(O)O)P(=O)(O)O)C(=O)O)cc1` (stereo not given), for which the EC50 is greater than 200 µM and the IC50 is 3.63 µM.

Take `CCOC(=O)Cc1cnc(NC(NC(=O)CC)(C(F)(F)F)C(F)(F)F)s1`: the EC50 is greater than 200 µM and the IC50 was greater than 200 µM. For `NCCSC12CC3CC(CC(C3)C1)C2`, the EC50 was greater than 200 µM and the IC50 worked out at 67.6 µM.

With `CC(=O)Nc1ccc(C(=O)NN2C(=O)C(Cl)/C2=C/c2ccco2)cc1` (stereo not given), the outcome was inactive. For the compound `N#CN=C(N(Cc1ccccc1)Cc1ccccc1)N(Cc1ccccc1)Cc1ccccc1`, the EC50 was greater than 39.8 µM and the IC50 was greater than 39.8 µM. For the compound `O=C(c1ccccc1)C1C(c2ccccc2)S(=O)C(c2ccccc2)CC1(O)c1ccccc1` (stereo not given), the EC50 is greater than 66.1 µM and the IC50 stood at 13.5 µM.

On to `N#CC1C(=O)N(c2ccccc2)NC12OC(=O)c1ccncc12` (stereo not given), for which the EC50 is greater than 200 µM and the IC50 is greater than 200 µM. `COc1ccc(N(C(=O)NCCO)c2ccccc2)cc1`: the EC50 is greater than 200 µM and the IC50 was greater than 200 µM.

Consider `CCN1C(=O)c2cc(=O)[nH]c(O)c2C1C` (stereo not given), for which the EC50 was greater than 468 µM and the IC50 is greater than 468 µM. Consider `COC(=O)[C@@H]1C[C@@H](OS(=O)(=O)c2ccc(C)cc2)CN1C(=O)OCc1ccccc1`, for which the result was inactive.

In the case of `CCN(CC)CC(=O)Nc1c(C)cc(C(=O)NN)cc1C`, the EC50 was greater than 200 µM and the IC50 was greater than 200 µM. `CC(=O)NC(CCCCN(Cc1ccccc1)C(=O)NCCCl)C(=O)NCc1ccccc1` (stereo not given): the EC50 is greater than 525 µM and the IC50 worked out at 355 µM.

Turning to `CN(C)CCCNC(=O)c1cc(NC(=O)c2cc(NC(=O)c3cc(NC(=O)c4ccccc4C(=O)O)cn3C)cn2C)cn1C`, the EC50 was greater than 200 µM and the IC50 was greater than 200 µM. As to `[CH2+][B-]1(C)n2ccc[n+]2[B-](C)(C)[n+]2cccn21`, the EC50 is greater than 200 µM and the IC50 was greater than 100 µM.

Consider `CC(CCC(=O)O)[C@H]1CCC2[C@@H]3CC(O)[C@@H]4CC(O)CC[C@]4(C)C3CC[C@@]21C` (stereo not given in full), for which the EC50 was greater than 200 µM and the IC50 was determined as 72.4 µM. As for `C/C(=C\c1ccccc1)C(O)C(=O)c1nc2ccc(Cl)cc2[nH]c1=O` (stereo not given), the EC50 was greater than 708 µM and the IC50 amounted to 33.9 µM. Turning to `O=Cc1c2ccccc2n2ccc3c4ccccc4[nH]c3c12`, the EC50 was greater than 200 µM and the IC50 was greater than 200 µM. Take `O=C1C(N=Nc2ccc(Br)cc2)Sc2nc3ccccc3n21` (stereo not given): the EC50 is greater than 200 µM and the IC50 is greater than 200 µM. As for `O=c1ccn(C2CC(CO)C(CO)C2)c(=O)[nH]1` (stereo not given), the EC50 is greater than 105 µM and the IC50 is greater than 105 µM. `C[C@]12CC[C@H](OC(=O)/C=C\c3ccc(N(CCCl)CCCl)cc3)CC1CC[C@@H]1C2CC[C@]2(C)NC(=O)CCC12` (stereo not given in full): the outcome was inactive. Take `O=c1[nH]n2c(=O)cc[nH]c2c1-c1nnns1`: the EC50 is greater than 30.9 µM and the IC50 was greater than 30.9 µM. On to `O=S(=O)(Sc1ccccc1)C(c1ccccc1)c1ccccc1`, for which the EC50 is greater than 132 µM and the IC50 is 21.4 µM. `COc1ccc(/C=C2\N=C(SC)NC2=O)cc1`: the EC50 was greater than 200 µM and the IC50 was found to be 107 µM.

Regarding `CC1=Nn2c(nc3sc4c(c3c2=O)CCCC4)SC1`, the result was inactive. Regarding `CC1(C)Oc2ccc3ccc(=S)oc3c2[C@@H](OC(=O)C23CCC(C)(C(=O)O2)C3(C)C)[C@H]1OC(=O)C12CCC(C)(C(=O)O1)C2(C)C` (stereo not given in full), the EC50 was 0.525 µM and the 50% inhibitory concentration (IC50) turned out to be 5.62 µM.

Consider `COC(=O)CC(c1ccc(OC)cc1)C(CC(=O)OC)c1ccc(OC)cc1` (stereo not given), for which the EC50 is greater than 67.6 µM and the IC50 turned out to be 60.3 µM.

Regarding `CC(C)CCCC(C)[C@H]1CCC2C3CCC4C[C@@H](CCC=C(c5cc(Cl)c(OCc6ccc([N+](=O)[O-])cc6)c(C(=O)O)c5)c5cc(Cl)c(OCc6ccc([N+](=O)[O-])cc6)c(C(=O)O)c5)CC[C@]4(C)C3CC[C@@]21C` (stereo not given in full), the 50% effective concentration (EC50) was 115 µM and the IC50 is greater than 200 µM. In the case of `Cc1cc(NCCO)nc2c1ccc1ccccc12`, the EC50 was greater than 141 µM and the IC50 is 22.4 µM. For `O=c1c(O)c(-c2ccc(Cl)cc2)oc2ccccc12`, the EC50 was greater than 200 µM and the IC50 is 4.07 µM.

For the origin of these results see PubChem BioAssay AID179 (DTP/NCI, 2004).
